Broadly, the Ki is a measure of affinity in units of concentration, obtained from inhibition or displacement.

*1 amine or outer side, *2 acyl side, *3 side chain or, on linkers, in order; H or OH if unused. Where a SMILES comes first, the peptide text is derived from it. Bridges are numbered along the chain shown (N, C = ends). [ ]: non-standard residue; d: D form. TATA = O=C(CC[*:1])N1CN(C(=O)CC[*:2])CN(C(=O)CC[*:3])C1; NMeT = CN[C@H](C(=O)O)[C@@H](C)O; hArg = N=C(N)NCCCC[C@H](N)C(=O)O

Experimental findings from patent publication US12459974B2, “Bicyclic peptide ligands specific for Nectin-4” (priority 2018, dated 2025) are described below.

The assay concerns the target T1, human Nectin-4 (Homo sapiens, UniProt Q96NY8).
T1 sequence (Q96NY8 32-510): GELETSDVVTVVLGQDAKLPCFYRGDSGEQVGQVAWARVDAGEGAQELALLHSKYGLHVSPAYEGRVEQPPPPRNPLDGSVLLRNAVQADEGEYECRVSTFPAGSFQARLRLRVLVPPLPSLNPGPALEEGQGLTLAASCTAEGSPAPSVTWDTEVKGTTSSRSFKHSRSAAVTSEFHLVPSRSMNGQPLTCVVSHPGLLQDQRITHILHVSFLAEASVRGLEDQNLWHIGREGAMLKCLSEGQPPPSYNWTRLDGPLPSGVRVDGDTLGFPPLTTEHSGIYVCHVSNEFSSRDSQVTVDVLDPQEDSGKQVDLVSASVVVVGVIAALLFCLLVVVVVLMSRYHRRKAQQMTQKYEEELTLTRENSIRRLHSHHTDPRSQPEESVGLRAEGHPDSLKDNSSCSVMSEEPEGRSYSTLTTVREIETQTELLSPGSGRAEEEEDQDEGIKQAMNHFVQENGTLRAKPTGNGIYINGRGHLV
Put plainly: Nectin-4 competition binding assay (fluorescence polarisation). As to conditions: competition with fluorescent peptide SEQ ID NO: 217; read-out: Ki. Put shortly:
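Ki derived by cubic-equation fit of mP data, with tracer peptide concentration, its Kd and Nectin-4 level as fixed inputs. Competition set up by adding 2-fold peptide dilutions (≤5% DMSO), then Nectin-4, then fluorescent peptide; polarisation measured as for direct binding.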
(Fluorescence polarisation rises when a labelled molecule tumbles more slowly, as on binding a larger partner.)
Consider `CC[C@H](C)[C@@H]1NC(=O)[C@H](CCCNC(=N)N)NC(=O)[C@H](CC(N)=O)NC(=O)[C@@H]2CSCCC(=O)N3CN(CN(C3)C(=O)CCSC[C@H](NC(=O)[C@H](Cc3c[nH]c4ccccc34)NC(=O)[C@H](CCCCN)NC(=O)[C@H](CCC(N)=O)NC(C)=O)C(=O)N[C@@H](C)C(=O)N[C@@H](C)C(=O)N[C@@H](CC(C)C)C(=O)N[C@@H](CO)C(=O)N[C@@H](CC(=O)O)C(=O)N[C@@H](Cc3ccc(O)cc3)C(=O)N[C@@H](Cc3c[nH]c4ccccc34)C(=O)N2)C(=O)CCSC[C@@H](C(N)=O)NC1=O` [BCY7625, Ac-QKW-(SEQ ID NO: 103)] (Ac-QKWCAALSDYWCNRIC-NH2; linker 4-12-16 via TATA; C-terminus assumed), for which the Ki was found to be 141 nM.

On to `CC[C@H](C)[C@@H]1NC(=O)[C@@H]2CCCN2C(=O)[C@H](Cc2ccc(O)cc2)NC(=O)[C@H](CO)NC(=O)[C@H](Cc2c[nH]c3ccccc23)NC(=O)[C@H](CC(N)=O)NC(=O)[C@H](CCCCN)NC(=O)[C@H](CCSC)NC(=O)[C@@H]2CSCCC(=O)N3CN(CN(C3)C(=O)CCSC[C@H](NC(C)=O)C(=O)N3CCC[C@H]3C(=O)N[C@@H](Cc3ccccc3)C(=O)NCC(=O)N2)C(=O)CCSC[C@@H](C(N)=O)NC(=O)[C@H](Cc2c[nH]c3ccccc23)NC1=O` [BCY7590, Ac-(SEQ ID NO: 85)] (Ac-CPFGCMKNWSYPIWC-NH2; linker 1-5-15 via TATA; C-terminus assumed), for which the Ki turned out to be 38.5 nM.

As to `CC[C@H](C)[C@@H]1NC(=O)[C@@H]2CCCN2C(=O)[C@H](Cc2c[nH]c3ccccc23)NC(=O)[C@H](CO)NC(=O)[C@H](Cc2c[nH]c3ccccc23)NC(=O)[C@H](CC(=O)O)NC(=O)[C@H](CCCCN)NC(=O)[C@H](CCSC)NC(=O)[C@@H]2CSCCC(=O)N3CN(CN(C3)C(=O)CCSC[C@H](NC(=O)[C@H](CC(N)=O)NC(=O)[C@H](CC(=O)O)NC(=O)[C@@H](N)CO)C(=O)N3CCC[C@H]3C(=O)N[C@@H](Cc3ccccc3)C(=O)NCC(=O)N2)C(=O)CCSC[C@@H](C(=O)N[C@@H](C)C(N)=O)NC(=O)[C@H](Cc2c[nH]c3ccccc23)NC1=O` [BCY3387, SDN-(SEQ ID NO: 15)-A] (H-SDNCPFGCMKDWSWPIWCA-NH2; linker 4-8-18 via TATA; N-terminus and C-terminus assumed), the Ki is 234 nM.

In the case of `CC[C@H](C)[C@@H]1NC(=O)[C@@H]2CCCN2C(=O)[C@H]([C@@H](C)O)N(C)C(=O)[C@H](CO)NC(=O)[C@H](Cc2c[nH]c3ccccc23)NC(=O)[C@H](CC(N)=O)NC(=O)[C@H](CCCCNC(=N)N)NC(=O)[C@@H]2CSCCC(=O)N3CN(CN(C3)C(=O)CCSC[C@H](NC(C)=O)C(=O)N3CCC[C@H]3C(=O)N[C@@H](Cc3ccccc3)C(=O)N[C@H](CC(=O)O)C(=O)N2)C(=O)CCSC[C@@H](C(N)=O)NC(=O)[C@H](Cc2c[nH]c3ccccc23)NC1=O` [BCY7979, Ac-(SEQ ID NO: 152)] (Ac-CPF[dD]C[hArg]NWS[NMeT]PIWC-NH2; linker 1-5-14 via TATA; C-terminus assumed), the Ki is 191 nM.

Regarding `CC[C@H](C)[C@@H]1NC(=O)[C@@H]2CCCN2C(=O)[C@H](Cc2c[nH]c3ccccc23)NC(=O)[C@H](CO)NC(=O)[C@H](Cc2c[nH]c3ccccc23)NC(=O)[C@H]([C@@H](C)O)NC(=O)[C@H](CCCCN)NC(=O)[C@H](CCSC)NC(=O)[C@@H]2CSCCC(=O)N3CN(CN(C3)C(=O)CCSC[C@H](NC(=O)[C@H](C)N)C(=O)N3CCC[C@H]3C(=O)N[C@@H](Cc3ccccc3)C(=O)NCC(=O)N2)C(=O)CCSC[C@@H](C(=O)N[C@H](C(=O)N[C@@H](CC(=O)O)C(=O)N[C@@H](CCCCN)C(N)=O)[C@@H](C)O)NC(=O)[C@H](Cc2c[nH]c3ccccc23)NC1=O` [BCY3394, A-(SEQ ID NO: 52)-TDK] (H-ACPFGCMKTWSWPIWCTDK-NH2; linker 2-6-16 via TATA; N-terminus and C-terminus assumed), the Ki was 102 nM.

For the compound `CC[C@H](C)[C@@H]1NC(=O)[C@@H]2CCCN2C(=O)[C@H](Cc2c[nH]c3ccccc23)NC(=O)[C@H](CO)NC(=O)[C@H](Cc2c[nH]c3ccccc23)NC(=O)CNC(=O)[C@@H]2CCCN2C(=O)[C@H](CCSC)NC(=O)[C@@H]2CSCCC(=O)N3CN(CN(C3)C(=O)CCSC[C@H](NC(=O)CNC(=O)[C@@H]3CCCN3C(=O)[C@@H](N)CC(=O)O)C(=O)N3CCC[C@H]3C(=O)N[C@@H](Cc3ccccc3)C(=O)NCC(=O)N2)C(=O)CCSC[C@@H](C(=O)N[C@@H](C)C(N)=O)NC(=O)[C@H](Cc2c[nH]c3ccccc23)NC1=O` [BCY3392, DPG-(SEQ ID NO: 50)-A] (H-DPGCPFGCMPGWSWPIWCA-NH2; linker 4-8-18 via TATA; N-terminus and C-terminus assumed), the Ki came to 36.3 nM.

In the case of `CC[C@H](C)[C@@H]1NC(=O)[C@@H]2CCCN2C(=O)[C@H](Cc2c[nH]c3ccccc23)NC(=O)[C@H](CO)NC(=O)[C@H](Cc2c[nH]c3ccccc23)NC(=O)[C@H](CC(N)=O)NC(=O)[C@H](CCCCN)NC(=O)[C@H](CCSC)NC(=O)[C@@H]2CSCCC(=O)N3CN(CN(C3)C(=O)CCSC[C@H](NC(C)=O)C(=O)N3CCC[C@H]3C(=O)N[C@@H](Cc3ccccc3)C(=O)NCC(=O)N2)C(=O)CCSC[C@@H](C(N)=O)NC(=O)[C@H](Cc2ccccc2)NC1=O` [BCY7596, Ac-(SEQ ID NO: 91)] (Ac-CPFGCMKNWSWPIFC-NH2; linker 1-5-15 via TATA), the Ki came to 353 nM.

Consider `CC[C@H](C)[C@@H]1NC(=O)[C@H](CCCNC(=N)N)NC(=O)CNC(=O)[C@@H]2CSCCC(=O)N3CN(CN(C3)C(=O)CCSC[C@@H](C(=O)N[C@@H](C)C(N)=O)NC1=O)C(=O)CCSC[C@H](NC(=O)[C@H](Cc1c[nH]c3ccccc13)NC(=O)[C@H](CC(=O)O)NC(=O)[C@@H](N)CC(=O)O)C(=O)N[C@@H](C)C(=O)N1CCC[C@H]1C(=O)N[C@@H](CC(C)C)C(=O)N[C@@H](CC(=O)O)C(=O)N[C@@H](CC(=O)O)C(=O)N[C@@H](Cc1ccc(O)cc1)C(=O)N[C@@H](Cc1c[nH]c3ccccc13)C(=O)N2` [BCY433, DDW-(SEQ ID NO: 32)-A] (H-DDWCAPLDDYWCGRICA-NH2; linker 4-12-16 via TATA; N-terminus and C-terminus assumed), for which the Ki was 69.4 nM.

Turning to `CC[C@H](C)[C@@H]1NC(=O)[C@H](CCCNC(=N)N)NC(=O)[C@H](C)NC(=O)[C@@H]2CSCCC(=O)N3CN(CN(C3)C(=O)CCSC[C@H](NC(=O)[C@H](Cc3c[nH]c4ccccc34)NC(=O)[C@H](CCCCN)NC(=O)[C@H](CCC(N)=O)NC(C)=O)C(=O)N[C@@H](C)C(=O)N3CCC[C@H]3C(=O)N[C@@H](CC(C)C)C(=O)N[C@@H](CO)C(=O)N[C@@H](CC(=O)O)C(=O)N[C@@H](Cc3ccc(O)cc3)C(=O)N[C@@H](Cc3c[nH]c4ccccc34)C(=O)N2)C(=O)CCSC[C@@H](C(N)=O)NC1=O` [BCY7631, Ac-QKW-(SEQ ID NO: 106)] (Ac-QKWCAPLSDYWCARIC-NH2; linker 4-12-16 via TATA; C-terminus assumed), the Ki turned out to be 19 nM.

With `CC[C@H](C)[C@@H]1NC(=O)[C@@H]2CCCN2C(=O)[C@H]([C@@H](C)O)NC(=O)[C@H](CO)NC(=O)[C@H](Cc2c[nH]c3ccccc23)NC(=O)[C@H](CC(N)=O)NC(=O)[C@H](CCCCNC(=N)N)NC(=O)[C@H](CCSC)NC(=O)[C@@H]2CSCCC(=O)N3CN(CN(C3)C(=O)CCSC[C@H](NC(C)=O)C(=O)N3CCC[C@H]3C(=O)N[C@@H](Cc3ccccc3)C(=O)N[C@H](CCC(=O)O)C(=O)N2)C(=O)CCSC[C@@H](C(N)=O)NC(=O)[C@H](Cc2c[nH]c3ccccc23)NC1=O` [BCY7903, Ac-(SEQ ID NO: 140)], the Ki came to 41 nM.

As for `CC[C@H](C)[C@@H]1NC(=O)[C@@H]2CCCN2C(=O)[C@H](Cc2c[nH]c3ccccc23)NC(=O)[C@H](CO)NC(=O)[C@H](Cc2c[nH]c3ccccc23)NC(=O)CNC(=O)[C@H](CCC(=O)O)NC(=O)[C@H](CCSC)NC(=O)[C@@H]2CSCCC(=O)N3CN(CN(C3)C(=O)CCSC[C@H](NC(=O)[C@H](C)NC(=O)[C@H](CC(=O)O)NC(=O)[C@@H](N)Cc3c[nH]cn3)C(=O)N3CCC[C@H]3C(=O)N[C@@H](Cc3ccccc3)C(=O)NCC(=O)N2)C(=O)CCSC[C@@H](C(=O)N[C@@H](C)C(N)=O)NC(=O)[C@H](Cc2c[nH]c3ccccc23)NC1=O` [BCY3390, HDA-(SEQ ID NO: 48)-A] (H-HDACPFGCMEGWSWPIWCA-NH2; linker 4-8-18 via TATA; N-terminus and C-terminus assumed), the Ki was determined as 302 nM.

Take `CC[C@H](C)[C@@H]1NC(=O)[C@@H]2CCCN2C(=O)[C@H](Cc2c[nH]c3ccccc23)NC(=O)[C@H](CO)NC(=O)[C@H](Cc2cccc3ccccc23)NC(=O)[C@H](CC(N)=O)NC(=O)[C@H](CCCCN)NC(=O)[C@H](CCSC)NC(=O)[C@@H]2CSCCC(=O)N3CN(CN(C3)C(=O)CCSC[C@H](NC(C)=O)C(=O)N3CCC[C@H]3C(=O)N[C@@H](Cc3ccccc3)C(=O)NCC(=O)N2)C(=O)CCSC[C@@H](C(N)=O)NC(=O)[C@H](Cc2c[nH]c3ccccc23)NC1=O` [BCY7663, Ac-(SEQ ID NO: 111)]: the Ki came out at 25.5 nM.

`CC[C@H](C)[C@@H]1NC(=O)[C@@H]2CCCN2C(=O)[C@H](Cc2c[nH]c3ccccc23)NC(=O)[C@H](CO)NC(=O)[C@H](Cc2c[nH]c3ccccc23)NC(=O)[C@H](CC(N)=O)NC(=O)[C@H](CCCCN)NC(=O)[C@H](CCSC)NC(=O)[C@@H]2CSCCC(=O)N3CN(CN(C3)C(=O)CCSC[C@H](NC(C)=O)C(=O)N3CCC[C@H]3C(=O)N[C@@H](Cc3ccccc3)C(=O)NCC(=O)N2)C(=O)CCSC[C@@H](C(N)=O)NC(=O)[C@H](Cc2ccc(O)cc2)NC1=O` [BCY7597, Ac-(SEQ ID NO: 92)] (Ac-CPFGCMKNWSWPIYC-NH2; linker 1-5-15 via TATA; C-terminus assumed): the Ki turned out to be 169 nM.
